Results reported in publication PMC4455115, “A new arylbenzofuran derivative functions as an anti-tumour agent by inducing DNA damage and inhibiting PARP activity” (Scientific Reports, 2015).

Molecular target: T1, PARP-1 (Homo sapiens, UniProt P09874)
T1 construct: gene PARP1
Test: HT Universal Colorimetric PARP Assay Kit (Trevigen), in vitro PARP-1 activity
Assay type: biochemical

T1 sequence (P09874 2-1014): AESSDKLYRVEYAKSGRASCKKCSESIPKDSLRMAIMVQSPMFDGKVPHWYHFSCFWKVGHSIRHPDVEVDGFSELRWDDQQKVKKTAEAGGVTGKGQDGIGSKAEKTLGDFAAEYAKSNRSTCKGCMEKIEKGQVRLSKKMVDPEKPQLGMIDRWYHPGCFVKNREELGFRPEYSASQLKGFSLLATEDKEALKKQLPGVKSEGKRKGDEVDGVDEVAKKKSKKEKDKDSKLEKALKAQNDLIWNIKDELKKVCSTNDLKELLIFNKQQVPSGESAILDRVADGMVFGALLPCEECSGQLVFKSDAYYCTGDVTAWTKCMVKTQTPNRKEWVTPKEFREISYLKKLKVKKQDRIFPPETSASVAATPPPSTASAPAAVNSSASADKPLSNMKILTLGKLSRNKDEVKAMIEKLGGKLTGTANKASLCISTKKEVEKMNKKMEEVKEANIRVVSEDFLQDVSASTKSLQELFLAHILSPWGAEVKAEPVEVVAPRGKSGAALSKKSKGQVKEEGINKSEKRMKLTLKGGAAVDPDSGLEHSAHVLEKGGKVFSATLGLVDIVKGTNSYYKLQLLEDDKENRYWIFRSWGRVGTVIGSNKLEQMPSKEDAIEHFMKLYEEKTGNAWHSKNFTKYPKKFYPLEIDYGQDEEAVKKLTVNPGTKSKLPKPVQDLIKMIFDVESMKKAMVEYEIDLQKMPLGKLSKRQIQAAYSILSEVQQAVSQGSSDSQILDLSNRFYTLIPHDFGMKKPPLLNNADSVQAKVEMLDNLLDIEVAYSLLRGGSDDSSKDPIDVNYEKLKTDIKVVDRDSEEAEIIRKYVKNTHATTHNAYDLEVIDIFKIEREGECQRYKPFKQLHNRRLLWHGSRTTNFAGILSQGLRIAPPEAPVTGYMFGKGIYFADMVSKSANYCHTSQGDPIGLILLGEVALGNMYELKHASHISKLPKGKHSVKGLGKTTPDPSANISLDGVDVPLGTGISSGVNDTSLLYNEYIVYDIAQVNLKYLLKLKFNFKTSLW

Compound: COc1ccc(-c2cc3cc(OC)cc(O)c3o2)cc1 [HDAB]
- IC50: 154 µM
